Experimental data as given in patent publication US11896573B2, “Pharmaceutical compositions and pharmacokinetics of a gamma-hydroxybutyric acid derivative” (priority 2020, dated 2024).
Where two headings read alike, the source gives them in different places.

Test: Single ascending dose study, plasma pharmacokinetics of Compound (1) and GHB
Assay type: in vivo, human
Settings: fasted; for Tmax / AUC(0-inf) / AUC(0-t) / Cmax / half-life: human, plasma; for Tmax: read-out: Compound (1) plasma Tmax, Median; for AUC(0-inf) / AUC(0-t) / Cmax / half-life: po
Protocol: The plasma concentrations of Compound (1) and GHB in plasma in healthy human subjects were measured using liquid chromatography tandem mass-spectroscopy and evaluated using PHOENIX™ WINNONLIN® version 8.1 (Pharsight Corporation, USA) and MICROSOFT® EXCEL® (Microsoft Corporation, USA).
All randomized subjects who received Compound (1), with available pharmacokinetic (PK) data and without relevant deviations interfering with the PK evaluations, were included. Subjects who received only placebo were excluded from the PK population. In addition, the PK population was used for the summaries and analyses of all PK data.
A randomized, double-blind, single-center, single ascending dose study was undertaken to evaluate the safety, tolerability, and pharmacokinetics of Compound (1) and GHB in healthy subjects.
Compound (1) was administered to randomized healthy subjects at doses from 0.1 g to 7.25 g as an aqueous solution of Compound (1) in water. The subjects fasted for at least 10 hours overnight with clear liquids allowed prior to dosing and the subjects were fasted for 4 hours after dosing.
Plasma samples were obtained at various times following oral administration and the plasma concentrations of Compound (1) and GHB were measured.

[1] = Cohort 7 (7.25 g) single oral dose

Compound: CC(C)[C@H](N)C(=O)OCCCC(=O)O [Compound (1), 4-((L-valyl)oxy)butanoic acid]
- Compound (1) CL/F, Max [1]: 433 L/h
- Compound (1) CL/F, Mean [1]: 376 L/h
- Compound (1) CL/F, Median [1]: 375 L/h
- Compound (1) CL/F, Min [1]: 298 L/h
- Compound (1) plasma AUC0-inf, Max [1]: 24300 ng·h/mL
- Compound (1) plasma AUC0-inf, Min [1]: 16700 ng·h/mL
- Compound (1) plasma AUC0-tlast, Max [1]: 24300 ng·h/mL
- Compound (1) plasma AUC0-tlast, Min [1]: 16700 ng·h/mL
- Compound (1) plasma Cmax, Max [1]: 26000 ng/mL
- Compound (1) plasma t1/2, Max [1]: 1.28 h
- Compound (1) plasma t1/2, Min [1]: 0.92 h
- Tmax (0.1 g, Cohort 1 (0.10 g) single oral dose): 0.25 h
- Tmax (0.5 g, Cohort 2 (0.50 g) single oral dose): 0.75 h
- Tmax (1.5 g, Cohort 3 (1.50 g) single oral dose): 1 h
- Tmax (4.5 g, Cohort 5 (4.50 g) single oral dose): 0.75 h
- AUC(0-inf) (0.1 g, Cohort 1 (0.10 g) single oral dose, read-out: Compound (1) plasma AUC0-inf, Mean): 250 ng·h/mL
- AUC(0-inf) (0.1 g, Cohort 1 (0.10 g) single oral dose, read-out: Compound (1) plasma AUC0-inf, Median): 252 ng·h/mL
- AUC(0-t) (0.1 g, Cohort 1 (0.10 g) single oral dose, read-out: Compound (1) plasma AUC0-tlast, Mean): 249 ng·h/mL
- AUC(0-t) (0.1 g, Cohort 1 (0.10 g) single oral dose, read-out: Compound (1) plasma AUC0-tlast, Median): 250 ng·h/mL
- Cmax (0.1 g, Cohort 1 (0.10 g) single oral dose, read-out: Compound (1) plasma Cmax, Mean): 420 ng/mL
- Cmax (0.1 g, Cohort 1 (0.10 g) single oral dose, read-out: Compound (1) plasma Cmax, Median): 373 ng/mL
- half-life (0.1 g, Cohort 1 (0.10 g) single oral dose, read-out: Compound (1) plasma t1/2, Mean (converted)): 0.7 h
- half-life (0.1 g, Cohort 1 (0.10 g) single oral dose, read-out: Compound (1) plasma t1/2, Median (converted)): 0.71 h
- AUC(0-inf) (0.5 g, Cohort 2 (0.50 g) single oral dose, read-out: Compound (1) plasma AUC0-inf, Mean): 1290 ng·h/mL
- AUC(0-inf) (0.5 g, Cohort 2 (0.50 g) single oral dose, read-out: Compound (1) plasma AUC0-inf, Median): 1280 ng·h/mL
- AUC(0-t) (0.5 g, Cohort 2 (0.50 g) single oral dose, read-out: Compound (1) plasma AUC0-tlast, Mean): 1290 ng·h/mL
- AUC(0-t) (0.5 g, Cohort 2 (0.50 g) single oral dose, read-out: Compound (1) plasma AUC0-tlast, Median): 1280 ng·h/mL
- Cmax (0.5 g, Cohort 2 (0.50 g) single oral dose, read-out: Compound (1) plasma Cmax, Mean): 1540 ng/mL
- Cmax (0.5 g, Cohort 2 (0.50 g) single oral dose, read-out: Compound (1) plasma Cmax, Median): 1270 ng/mL
- half-life (0.5 g, Cohort 2 (0.50 g) single oral dose, read-out: Compound (1) plasma t1/2, Mean (converted)): 1.11 h
- half-life (0.5 g, Cohort 2 (0.50 g) single oral dose, read-out: Compound (1) plasma t1/2, Median (converted)): 1.19 h
- AUC(0-inf) (1.5 g, Cohort 3 (1.50 g) single oral dose, read-out: Compound (1) plasma AUC0-inf, Mean): 2480 ng·h/mL
- AUC(0-inf) (1.5 g, Cohort 3 (1.50 g) single oral dose, read-out: Compound (1) plasma AUC0-inf, Median): 2710 ng·h/mL
- AUC(0-t) (1.5 g, Cohort 3 (1.50 g) single oral dose, read-out: Compound (1) plasma AUC0-tlast, Mean): 2860 ng·h/mL
- AUC(0-t) (1.5 g, Cohort 3 (1.50 g) single oral dose, read-out: Compound (1) plasma AUC0-tlast, Median): 2960 ng·h/mL
- Cmax (1.5 g, Cohort 3 (1.50 g) single oral dose, read-out: Compound (1) plasma Cmax, Mean): 3360 ng/mL
- Cmax (1.5 g, Cohort 3 (1.50 g) single oral dose, read-out: Compound (1) plasma Cmax, Median): 2920 ng/mL
- half-life (1.5 g, Cohort 3 (1.50 g) single oral dose, read-out: Compound (1) plasma t1/2, Mean (converted)): 1.04 h
- half-life (1.5 g, Cohort 3 (1.50 g) single oral dose, read-out: Compound (1) plasma t1/2, Median (converted)): 1.06 h
- AUC(0-inf) (3 g, Cohort 4 (3.00 g) single oral dose, read-out: Compound (1) plasma AUC0-inf, Mean): 7520 ng·h/mL
- AUC(0-inf) (3 g, Cohort 4 (3.00 g) single oral dose, read-out: Compound (1) plasma AUC0-inf, Median): 7410 ng·h/mL
- AUC(0-t) (3 g, Cohort 4 (3.00 g) single oral dose, read-out: Compound (1) plasma AUC0-tlast, Mean): 7510 ng·h/mL
- AUC(0-t) (3 g, Cohort 4 (3.00 g) single oral dose, read-out: Compound (1) plasma AUC0-tlast, Median): 7410 ng·h/mL
- Cmax (3 g, Cohort 4 (3.00 g) single oral dose, read-out: Compound (1) plasma Cmax, Mean): 11300 ng/mL
- Cmax (3 g, Cohort 4 (3.00 g) single oral dose, read-out: Compound (1) plasma Cmax, Median): 11200 ng/mL
- half-life (3 g, Cohort 4 (3.00 g) single oral dose, read-out: Compound (1) plasma t1/2, Mean (converted)): 1.15 h
- half-life (3 g, Cohort 4 (3.00 g) single oral dose, read-out: Compound (1) plasma t1/2, Median (converted)): 1.12 h
- AUC(0-inf) (4.5 g, Cohort 5 (4.50 g) single oral dose, read-out: Compound (1) plasma AUC0-inf, Mean): 11400 ng·h/mL
- AUC(0-inf) (4.5 g, Cohort 5 (4.50 g) single oral dose, read-out: Compound (1) plasma AUC0-inf, Median): 11600 ng·h/mL
- AUC(0-t) (4.5 g, Cohort 5 (4.50 g) single oral dose, read-out: Compound (1) plasma AUC0-tlast, Mean): 11100 ng·h/mL
- AUC(0-t) (4.5 g, Cohort 5 (4.50 g) single oral dose, read-out: Compound (1) plasma AUC0-tlast, Median): 11600 ng·h/mL
- Cmax (4.5 g, Cohort 5 (4.50 g) single oral dose, read-out: Compound (1) plasma Cmax, Mean): 12800 ng/mL
- Cmax (4.5 g, Cohort 5 (4.50 g) single oral dose, read-out: Compound (1) plasma Cmax, Median): 14000 ng/mL
- half-life (4.5 g, Cohort 5 (4.50 g) single oral dose, read-out: Compound (1) plasma t1/2, Mean (converted)): 1.14 h
- half-life (4.5 g, Cohort 5 (4.50 g) single oral dose, read-out: Compound (1) plasma t1/2, Median (converted)): 1.13 h
- AUC(0-inf) (6 g, Cohort 6 (6.00 g) single oral dose, read-out: Compound (1) plasma AUC0-inf, Mean): 18400 ng·h/mL
- AUC(0-inf) (6 g, Cohort 6 (6.00 g) single oral dose, read-out: Compound (1) plasma AUC0-inf, Median): 18000 ng·h/mL
- AUC(0-t) (6 g, Cohort 6 (6.00 g) single oral dose, read-out: Compound (1) plasma AUC0-tlast, Mean): 18400 ng·h/mL
- AUC(0-t) (6 g, Cohort 6 (6.00 g) single oral dose, read-out: Compound (1) plasma AUC0-tlast, Median): 18000 ng·h/mL
- Cmax (6 g, Cohort 6 (6.00 g) single oral dose, read-out: Compound (1) plasma Cmax, Mean): 17600 ng/mL
- Cmax (6 g, Cohort 6 (6.00 g) single oral dose, read-out: Compound (1) plasma Cmax, Median): 16500 ng/mL
- half-life (6 g, Cohort 6 (6.00 g) single oral dose, read-out: Compound (1) plasma t1/2, Mean (converted)): 1.18 h
- half-life (6 g, Cohort 6 (6.00 g) single oral dose, read-out: Compound (1) plasma t1/2, Median (converted)): 1.18 h
- AUC(0-inf) (7.25 g, Cohort 7 (7.25 g) single oral dose, read-out: Compound (1) plasma AUC0-inf, Mean): 19600 ng·h/mL
- AUC(0-inf) (7.25 g, Cohort 7 (7.25 g) single oral dose, read-out: Compound (1) plasma AUC0-inf, Median): 19400 ng·h/mL
- AUC(0-t) (7.25 g, Cohort 7 (7.25 g) single oral dose, read-out: Compound (1) plasma AUC0-tlast, Mean): 19600 ng·h/mL
- AUC(0-t) (7.25 g, Cohort 7 (7.25 g) single oral dose, read-out: Compound (1) plasma AUC0-tlast, Median): 19400 ng·h/mL
- Cmax (7.25 g, Cohort 7 (7.25 g) single oral dose, read-out: Compound (1) plasma Cmax, Mean): 22100 ng/mL
- Cmax (7.25 g, Cohort 7 (7.25 g) single oral dose, read-out: Compound (1) plasma Cmax, Median): 22200 ng/mL
- half-life (7.25 g, Cohort 7 (7.25 g) single oral dose, read-out: Compound (1) plasma t1/2, Mean (converted)): 1.11 h
- half-life (7.25 g, Cohort 7 (7.25 g) single oral dose, read-out: Compound (1) plasma t1/2, Median (converted)): 1.12 h
- Tmax (Cohort 4 (3.00 g) single oral dose): 0.5 h
- Tmax (Cohort 6 (6.00 g) single oral dose): 0.5 h
- Tmax [1]: 0.62 h
